Source: US20260144740A1, “COSMETIC ACTIVE INGREDIENT DERIVED FROM A NON-VOLATILE FRACTION OF CANARIUM EXUDATE AND USES THEREOF” (FLORE SCOLA, priority 2022, published 2026)

Columns and labels:
interleukin 6 (IL-6) = assay: Anti-inflammatory effect: IL-6 release by keratinocytes stimulated by UV (ELISA, related to protein level); type: cell-based, human; conditions: positive control
Protocol: This test consists of evaluating the production of inflammatory mediators by human keratinocytes in response to irritant stress. The method is based on measuring the release rate of interleukin 6 (IL-6) by keratinocytes cultured in the presence of the ingredient and stimulated by UV light.
Five solutions are tested. Each is obtained by dilution in a culture medium and obtaining a final concentration of 1% ethanol. […] The second, third and fourth solutions differ in the concentration of the final residue (respectively 1.4 μg/mL, 3.5 μg/mL and 7.0 μg/mL). The fifth solution is dexamethasone (Dexa) (SIGMA Ref D1756) which is tested at 100 µM as a positive control.
On D0, 48 hours after seeding, the cells are rinsed with phosphate-buffered saline (PBS) and then exposed to UVB through the PBS. Immediately after irradiation, the PBS is replaced by the DMEM (Dulbecco's Modified Eagle Medium) test medium comprising the solution to be tested. The cells are returned to 37° C. and incubated for 24 hours.
On D1 (T 24 h), the incubation media are collected and the level of IL-6 is measured using the ELISA assay kit (IL-6 HIGH SENSITIVITY ELISA KIT, ENZO). At the same time, the corresponding cell layers are rinsed with Hank's Balanced Salt Solution (HBSS) and processed for cellular protein assay. A NaOH solution is added to each sample. After incubation, the cell extracts are collected and frozen at −20° C. to await assay with the BCA Protein Assay kit (PIERCE®).
The crude levels of IL-6 (pg per sample) are deduced by interpolation from the standard curve established with the IL-6 standard in the kit. The average of the IL-6 levels is calculated for each sample.
The protein level (μg per sample) is deduced by interpolation from the standard curve established with a bovine serum albumin standard in order to express the IL-6 level in relation to the average protein level. The average level is calculated for each sample.
The average IL-6 level is related to the average protein level. […]

PCi-SEB human sebocytes = assay: Anti-sebum effect: intracellular neutral lipids (Nile Red test) in sebocytes, lipogenesis induced by linoleic acid; type: cell-based; conditions: positive control
Protocol: The aim of this test is to study the anti-sebum effect of the ingredient according to the invention using an in vitro cell model. An extract is prepared according to Example 2.
The procedure is as follows. PCi-SEB human sebocytes derived from induced pluripotent stem (iPS) cells are prepared. The amplification and the maturation of PCi-SEB sebocytes is achieved by incubation in SEB medium for amplification for 2 days then in supplemented SEB medium for maturation for 3 days. The sebocytes are incubated for 24 hours in the presence of the ingredient according to the invention. Lipogenesis is induced by the addition of linoleic acid, then the sebocytes are incubated for 48 hours in the presence of the ingredient according to the invention.
In order to verify efficacy, the following biomarkers are measured: namely, intracellular neutral lipids (Nile Red test) and cellular proteins (Pierce BCA test).
The experimental plan is as follows: • 1 batch (Control): untreated cells incubated in SEB medium (n=3) • 1 batch (EtOH control): untreated cells incubated in SEB medium+EtOH (0.125%)] (n=3) • 3 batches (Test element-treated): cells incubated in medium (SEB+EtOH (0.125%)) and treated with 3 concentrations of test element (n=3) • 1 batch [PC]: cells incubated in SEB medium and treated with TOFA (20 μM)
The ingredient according to the invention was tested at 3 concentrations: C1=5 μg/mL, C2=15 μg/mL and C3=30 μg/mL
The level of neutral lipids was measured in control sebocyte cultures then treated by staining the cells with Nile Red. The values (fluorescence intensity) were reported at the average cellular protein level.
The [Nile-Red] values are expressed in arbitrary units (fluorescence intensity (urf) per mg of cellular protein).

| SMILES | Induced IL-6 (interleukin 6 (IL-6); 100 μM, 24 h after UVB) [pg/mg prot.] | Induced IL-6 (%), with respect to IL-6 induced in the ethanol control (interleukin 6 (IL-6); 100 μM, 24 h after UVB) [%] | inhibition of UV-induced IL-6 release (interleukin 6 (IL-6); same experimental conditions) [%] | Neutral lipids - Nile Red, Mean, per mg of cellular protein (PCi-SEB human sebocytes; 20 μM) [URF/mg prot.] | Nile Red Test, Mean (fluorescence intensity) (PCi-SEB human sebocytes; 20 μM) | Lipogenic effect (%) (PCi-SEB human sebocytes; 20 μM, vs. EtOH control) | activity at 20 µM (PCi-SEB human sebocytes; Homo sapiens, read-out: Neutral lipids (% of controlEtOH)) [%] |
| --- | --- | --- | --- | --- | --- | --- | --- |
| C[C@@H]1C[C@H]2[C@@H]3CCC4=CC(=O)C=C[C@]4(C)[C@@]3(F)[C@@H](O)C[C@]2(C)[C@@]1(O)C(=O)CO [Dexa, dexamethasone] | 105.10 | 8 | 92 | – | – | – | – |
| CCCCCCCCCCCCCCOc1ccc(C(=O)O)o1 [TOFA, 5-(tetradecyloxy)-2-furoic acid] | – | – | – | 7.01 | 1679 | −75 | 25 |
